Reference: US20240408145A1, “Gene Therapy” (Ospedale San Raffaele S.r.l., priority 2021, published 2024)
“Also recorded” adds a separate entry of the source.

Tests used:
human CD34+ HSPCs [1] = experiment: Colony-forming unit cell (CFU-C) assay; assay type: cell-based
human CD34+ HSPCs [2] = experiment: Apoptosis analysis of HSPCs (Annexin V, 7AAD); assay type: cell-based; conditions: HSPCs edited with COMBO, 24 h upon GE
[3] = system: HDR-edited human HSPC clones; experiment: BAR-Seq clonal tracking of HDR-edited HSPCs; assay type: in vivo, NSG mice; conditions: end of experiment; inhibitor at time of GE vs standard gene edited cells
Experimental: PCR amplicons for individual samples were generated by nested PCR using primers listed in Ferrari, S. et al., 2020, Nat Biotech 38(11):1298-1308 and starting from >50-100 ng of purified gDNA. The first PCR step was performed with GoTaq G2 DNA Polymerase (Promega) according to the manufacturer's instructions using the following amplification protocol: 95° C. for 5 min, (95° C. for 0.5 min, 60° C. for 0.5 min, 72° C. for 0.5 min)×20 cycles, 72° C. for 5 min. Forward primer was designed to bind donor template upstream the BAR sequence, while the reverse primer annealed outside the homology arm, thus amplifying 328 bp of the on-target integrated cassette. For targeted deep sequencing of the plasmid and AAV libraries, the reverse primer annealed to the homology arm. […] Library quality was assessed by Agilent Tapestation (Agilent Technologies). […]
BAR-Seq data were processed with TagDust57 (v.2.33) to identify and extract the BAR from each sample by taking advantage of the structural composition of the reads. […] BAR abundance was quantified by summing the number of identical sequences. […] BARs with a read count lower than three were discarded and the remaining set of BARs were identified as the valid BARs of this sample. […]

CB-derived HSPCs = experiment: Whole transcriptomic analysis with GSEA; assay type: cell-based, human; conditions: CB HSPCs edited in presence of Anakinra vs not treated, 24 and 96 h
Experimental: Whole transcriptomic analysis was performed on a pool of HSPCs derived from five CB donors. All conditions were performed in triplicate. […] RNA was quantified with The Qubit 2.0 Fluorometer (ThermoFisher) and its quality was assessed by a 2100 Agilent Bioanalyser (Agilent Technologies). Minimum quality was defined as RNA integrity number (RIN) >8,300 ng of total RNA were used for library preparation with TruSeq Stranded Total RNA with Ribo-Zero Gold kit (Illumina) and sequenced on a NextSeq 500 (Illumina). Read quality was determined using FastQC and low-quality sequences were trimmed using Trimmomatic. RNA-seq data were aligned to the human reference genome (GRCh38/hg38) using both HISAT2 and STAR with standard input parameters. Gene counts were produced using Subread featureCounts against Genecode v26 or v31, considering results produced by both the aligners. After visual inspection of results, we continued the analysis using alignments achieved using HISAT, which provided more conservative alignments. […] Differential expression was determined considering only protein coding genes and correcting p-values using FDR.

human CD34+ HSPCs [4] = experiment: Senescence markers in HSPCs ex vivo (p16); assay type: cell-based; conditions: mPB-derived HSPCs, 24 h and 96 h upon GE
human CD34+ HSPCs [5] = experiment: Culture composition of HSPC subpopulations (flow cytometry); assay type: cell-based
[6] = system: BM-derived human CD34+ cells; experiment: CFU-C assay of CD34+ cells retrieved from bone marrow of primary recipients; assay type: cell-based; conditions: 15-18 weeks, inhibitor at time of ex vivo GE vs standard protocol
CDKN1A (p21) = experiment: p21 expression in edited HSPCs (qPCR); assay type: cell-based, human; conditions: CB HSPCs, HS/AAV6 ± Anakinra, 24 and 96 h
Experimental: For gene expression analyses, total RNA was extracted using either miRNeasy Micro Kit (QIAGEN) according to the manufacturer's instructions and DNase treatment was performed using RNase-free DNase Set (QIAGEN). cDNA was synthetized with iScript cDNA Synthesis Kit (Bio-Rad). cDNA was then pre-amplified using TaqMan PreAmp Master Mix (ThermoFisher) and used for q-PCR in a Viia7 Real-time PCR thermal cycler using both Fast SYBR Green Master Mix (Thermofisher), after standard curve method optimization to reach the 100% primer efficiency for each couple of primers listed in 1. The relative expression of each target gene was first normalized to GUSB housekeeping genes expression and then represented as 2^-DCt for each sample or as fold changes (2^-DDCt) relative to the indicated control conditions.

Anakinra: recombinant and slightly modified form of the Human interleukin-1 receptor antagonist (IL-1Ra); SEQ ID NO: 3
Number of colonies (HSPC clonogenic potential) (human CD34+ HSPCs [1]; CB HSPCs, HS/AAV6, inhibitor at time of GE vs standard protocol, 24 h and 96 h post GE): significant increase in HSPC clonogenic potential; also recorded: strongly improved HSPC clonogenic potential in vitro; also recorded: strongly improved HSPC clonogenic potential ex-vivo
Clonogenic potential (number of colonies) (human CD34+ HSPCs [1]; HSPCs edited with COMBO, 24 and 96 h): increase in the clonogenic potential of the cells
Clonogenic potential of edited cells (human CD34+ HSPCs [1]; mPB-derived HSPCs, 24 and 96 h post GE): significantly improved the clonogenic potential of edited cells
Apoptosis (human CD34+ HSPCs [2]): without overt apoptosis
Number of dominant unique BARs in human BM-derived cells (polyclonal reconstitution) [3]: higher long-term polyclonal reconstitution
GSEA normalized enrichment scores for inflammatory/TNFα dependent pathways, interferon responses, senescence categories (CB-derived HSPCs): negative and significantly high normalized enrichment scores (NES); also recorded: downregulated early and late upon Anakinra treatment
Percentage of p16+ senescent cells in GFP+ HDR-edited cells (human CD34+ HSPCs [4]): partially mitigated by Anakinra treatment
Culture composition of HSPC subpopulations (human CD34+ HSPCs [5]; CB HSPCs, 24 h and 96 h post gene editing ± Anakinra): No treatment skewed culture composition over time
Culture composition skewing (human CD34+ HSPCs [5]; HSPCs edited with COMBO, 24 h and 96 h): without overt apoptosis (FIG. 17I) and culture composition skewing
HSPC culture composition and differentiation (human CD34+ HSPCs [5]; mPB-derived HSPCs ± Anakinra): did not alter HSPC culture composition and differentiation
Number of colonies formed by BM-derived CD34+ cells [6]: higher clonogenic potential
Relative expression of CDKN1A (p21) (CDKN1A (p21)): upregulated upon GE compared to negative controls independently from Anakinra treatment
